Measurements from patent US20250177383A1, “DI-CYCLOPROPYL BASED IL-17A MODULATORS AND USES THEREOF” (DICE ALPHA, INC., priority 2022, published 2025).

Assays:
[1] = Microsomal stability, human liver microsomes; format: in vitro ADME; details: human liver microsomes 0.5 mg protein/mL, 1 μM test compound, NADPH, 37° C., 60 min; read-out: HLM Clint
Description: (§1) Test compound and control working solution preparation. 5 μL of a compound and control stock solution (10 mM in dimethyl sulfoxide (DMSO)) were diluted with 495 μL of acetonitrile (ACN).
(§2) NADPH cofactor preparation. The appropriate amount of NADPH powder was weighed and diluted into a 10 mM MgCl2 solution (working solution concentration: 10 mM; final concentration in reaction system: 1 mM). Materials: NADPH powder: β-Nicotinamide adenine dinucleotide phosphate reduced form, tetrasodium salt; NADPHA4Na (Vendor: Chem-Impex International, Cat. No. 00616).
(§3) Liver Microsome Preparation. The appropriate concentrations of microsome working solutions were prepared in 100 mM potassium phosphate buffer. Materials: Human Liver Microsomes (HLM) Cat No. 452117 and Lot No. 38295 (Corning); SD Rat Liver Microsomes (RLM) Cat No. R1000 and Lot No. 1910100 (Xenotech).
(§4) Stop solution preparation. Cold (4° C.) acetonitrile (ACN) containing 200 ng/mL tolbutamide and 200 ng/mL labetalol as internal standards (IS) were used as the stop solution.
(§5) Assay Procedure. Empty incubation plates (T60 and NCF60) were warmed for 10 mins prior to use. Liver microsomes were diluted to 0.56 mg/mL in 100 mM phosphate buffer. 445 uL microsome working solutions (0.56 mg/mL) were transferred into pre-warmed ‘Incubation’ plates T60 and NCF60, Then ‘Incubation’ plates T60 and NCF60 were pre-incubated for 10 min at 37° C. with constant shaking. 54 μL liver microsomes were transferred to the blank plate, then 6 μL NAPDH cofactor were added to the blank plate, followed by the addition 180 μL quenching solution to the blank plate. 5 μL compound working solution (100 μM) were added into ‘incubation’ plates (T60 and NCF60) containing microsomes and mixed thoroughly 3 times. To the NCF60 plate 50 μL of buffer were added and mixed 3 times thoroughly. Start timing; plate was incubated at 37° C. for 60 min while shaking. In ‘Quenching’ plate TO, were added 180 μL quenching solution and 6 μL NAPDH cofactor. Plate is chilled to prevent evaporation. The T60 plate, was mixed 3 times thoroughly, and immediately 54 μL of the mixture was removed for the 0-min time point to ‘Quenching’ plate. Then 44 μL NAPDH cofactor was added to the incubation plate (T60). Start timing; plate was incubated at 37° C. for 60 min while shaking. Final concentrations of each component in the incubation media: Microsome (0.5 mg protein/mL); Test compound (1 μM); control compound ([…]); ACN (0.99%); and DMSO (0.01%). At 5, 15, 30, 45, and 60 min, 180 μL quenching solution was added to ‘Quenching’ plates, mixed once, and serially transferred 60 μL of sample from T60 plate per time point to ‘Quenching’ plates. For the NCF60 plate, mix once and 60 μL of sample was transferred from the NCF60 incubation to ‘Quenching’ plate containing quenching solution at the 60-min time point (Start time 1:00:00 and End Time 0:00:00).
(§6) All sampling plates were shaken for 10 min, then centrifuged at 4000 rpm for 20 minutes at 4° C. 80 μL of supernatant were transferred into 240 μL HPLC water, and mixed by plate shaker for 10 min. Each bioanalysis plate was sealed and shaken for 10 minutes prior to LC-MS/MS analysis.

Rat pharmacokinetics, PO = format: in vivo; details: male rat, PO 5 mg/kg oral gavage, plasma, Linear/log trapezoidal; read-out: Rat PO AUC0-t
Description: Formulations for PO. An appropriate amount of the test article is weighed and mixed with the appropriate volume of vehicle to get a clear solution or a uniform suspension, vortexing or sonication in water bath may used. Animals are dosed within four hours after the formulation is prepared.
Formulation samples are removed from each of the formulation solutions or suspensions, transferred into 1.5 mL of polypropylene microcentrifuge tubes and run dose validated by LC/UV or LC-MS/MS.
Dose administration. For PO dosing, the dose formulation is administered via oral gavage.
Blood Collection. Each blood collection (about 0.2 mL per time point) is performed from carotid artery cannula (CAC) of each animal into a pre-chilled commercial EDTA-K2 tubes as anti-coagulant, then placed on wet ice until centrifugation. Blood samples are processed for plasma by centrifugation at approximately 4° C., 3,200 g for 10 min. Plasma is collected respectively and a certain amount of plasma from rat is transferred into pre-labeled 96 well plate or polypropylene tubes, quick frozen over dry ice and kept at −60° C. or lower until LC-MS/MS analysis. After terminal collection, all plasmas are stored at approximately −80° C. freezer until final analysis.
Plasma concentration versus time data are plotted in graph and analyzed by non-compartmental approaches using the Phoenix WinNonlin 6.3 software program. Trapezoids: Before TMax (Linear); After Tmax (Log). Partial Area Interpolations: Before TMax (Linear); After Tmax (Log).

[2] = Microsomal stability, rat liver microsomes; format: in vitro ADME; details: SD rat liver microsomes 0.5 mg protein/mL, 1 μM test compound, NADPH, 37° C., 60 min; read-out: RLM Clint
Description: as §1, §2, §3, §4, §5, §6

IL-17A/A = target: T1, IL-17A/A (Homo sapiens, UniProt Q16552); assay: IL-17A/A HEK-Blue Cell Assay; format: cell-based; details: HEK-Blue IL-17 reporter cells, IL-17A/A stimulation, 20 hours, SEAP readout; read-out: IL17 AA HEK-5 pIC50 (converted)
T1 sequence (Q16552 24-155): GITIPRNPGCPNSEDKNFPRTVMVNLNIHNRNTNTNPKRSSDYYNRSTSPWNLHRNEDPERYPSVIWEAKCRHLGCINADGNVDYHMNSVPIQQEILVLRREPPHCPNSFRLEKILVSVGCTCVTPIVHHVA
In short: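 Cells co-expressing IL-17RA, IL-17RC and Act1 received titrated compound, top final 10 uM in 0.1% DMSO, immediately before IL-17A/A stimulation.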

Compound | microsomal CLint at 1 μM [1] [µL/min/mg] | AUC(0-t) (Rat pharmacokinetics, PO) [ng·h/mL] | microsomal CLint at 1 μM [2] [µL/min/mg] | IC50 (IL-17A/A) [nM]
CCC(=O)N[C@@H](C(=O)N1CCN(C)[C@@H](C)C1)[C@@H](C)c1ccc(NC(=O)[C@@H](NC(=O)c2ccnn2CC)[C@H]2CC[C@H](C)CC2)c(F)c1 [I, reference compound] | > 150 | < 500 | 9.6 to 20 | –
CCn1nccc1C(=O)N[C@H](C(=O)Nc1ccc([C@H](C)[C@@H](NC(=O)COC)C(=O)N2CCN(C)[C@H](C)C2)cc1F)[C@H]1CC[C@H](C)CC1 [D, reference compound] | 50 to 150 | 500 to 1000 | 9.6 to 20 | –
CCC(=O)N[C@@H](C(=O)N1CCN(C)[C@H](C)C1)[C@@H](C)c1ccc(NC(=O)[C@@H](NC(=O)c2ccnn2CC)[C@H]2CC[C@H](C)CC2)c(F)c1 [G, reference compound] | > 150 | 500 to 1000 | > 20 | –
CCn1nccc1C(=O)N[C@H](C(=O)Nc1ccc([C@H](C)[C@@H](NC(=O)COC)C(=O)N2CCN(C)[C@@H](CF)C2)cc1F)[C@H]1CC[C@H](C)CC1 [B, reference compound] | 50 to 150 | < 500 | 9.6 to 20 | –
CCn1nccc1C(=O)N[C@H](C(=O)Nc1ccc([C@H](C)[C@@H](NC(=O)N(C)C2CC2)C(=O)N2CCN(C)CC2)cc1F)[C@H]1CC[C@H](C)CC1 [J, reference compound] | > 150 | < 500 | > 20 | –
CCn1nccc1C(=O)N[C@H](C(=O)Nc1ccc([C@H](C)[C@@H](NC(=O)COC)C(=O)N2CCN(C)CC2)cc1F)[C@H]1CC[C@H](C)CC1 [K, reference compound] | > 150 | 500 to 1000 | < 9.6 | –
CCC(=O)N[C@@H](C(=O)N1C[C@@H](C)N(C)C[C@H]1C)[C@@H](C)c1ccc(NC(=O)[C@@H](NC(=O)c2ccnn2CC)[C@H]2CC[C@H](C)CC2)c(F)c1 [A, reference compound] | 50 to 150 | 500 to 1000 | > 20 | –
CCn1nccc1C(=O)N[C@H](C(=O)Nc1ccc([C@H](C)[C@@H](NC(C)=O)C(=O)N2CCN(C)[C@H](C)C2)cc1F)[C@H]1CC[C@H](C)CC1 [C, reference compound] | > 150 | < 500 | > 20 | –
CCC(=O)N[C@@H](C(=O)N1CCN(C)CC1)[C@@H](C)c1ccc(NC(=O)[C@@H](NC(=O)c2ccnn2C(C)C)[C@H]2CC[C@H](C)CC2)c(F)c1 [L, reference compound] | > 150 | 500 to 1000 | 9.6 to 20 | –
CCn1nccc1C(=O)N[C@H](C(=O)Nc1ccc([C@H](C)[C@@H](NC(=O)N(C)C2CC2)C(=O)N2CCN(C)CC2)cc1F)C(C1CC1)C1CC1 [Compound 225] | 50 to 150 | < 500 | > 20 | < 10
CCC(=O)N[C@@H](C(=O)N1C[C@@H](C)N(C)[C@@H](C)C1)[C@@H](C)c1ccc(NC(=O)[C@@H](NC(=O)c2ccnn2CC)C(C2CC2)C2CC2)c(F)c1 [Compound 223] | 50 to 150 | < 500 | 9.6 to 20 | < 10
CCC(=O)N[C@@H](C(=O)N1CCN(C)[C@H](C)C1)[C@@H](C)c1ccc(NC(=O)[C@@H](NC(=O)c2ccnn2CC(F)F)[C@H]2CC[C@H](C)CC2)c(F)c1 [E, reference compound] | > 150 | 500 to 1000 | 9.6 to 20 | –
CCC(=O)N[C@@H](C(=O)N1CCN(C)[C@H](C)C1)[C@@H](C)c1ccc(NC(=O)[C@@H](NC(=O)c2ccnn2CC(F)F)C(C2CC2)C2CC2)c(F)c1 [Compound 232] | < 50 | < 500 | < 9.6 | < 10
CCc1nonc1C(=O)N[C@H](C(=O)Nc1ccc([C@H](C)[C@@H](NC(C)=O)C(=O)N2CCN(C)[C@H](C)C2)cc1F)C(C1CC1)C1CC1 [Compound 214] | 50 to 150 | < 500 | 9.6 to 20 | < 10
CCC(=O)N[C@@H](C(=O)N1CCN(C)[C@H](C)C1)[C@@H](C)c1ccc(NC(=O)[C@@H](NC(=O)c2ccnn2CCF)C(C2CC2)C2CC2)c(F)c1 [Compound 217] | < 50 | < 500 | < 9.6 | < 10
CCC(=O)N[C@@H](C(=O)N1CCN(C)CC1)[C@@H](C)c1ccc(NC(=O)[C@@H](NC(=O)c2ccnn2C(C)C)C(C2CC2)C2CC2)c(F)c1 [Compound 257] | 50 to 150 | 500 to 1000 | < 9.6 | < 10
CCC(=O)N[C@@H](C(=O)N1CCN(C)[C@H](C)C1)[C@@H](C)c1ccc(NC(=O)[C@@H](NC(=O)C2(F)CC2)[C@H]2CC[C@H](C)CC2)c(F)c1 [H, reference compound] | 50 to 150 | < 500 | 9.6 to 20 | –
CCC(=O)N[C@@H](C(=O)N1CCN(C)[C@H](C)C1)[C@@H](C)c1ccc(NC(=O)[C@@H](NC(=O)c2ccnn2CCF)[C@H]2CC[C@H](C)CC2)c(F)c1 [F, reference compound] | 50 to 150 | 500 to 1000 | 9.6 to 20 | –
